Tested on: fulvestrant-resistant MCF7:5C-FR cells
Assay: Fulvestrant-resistant breast cancer cell viability (cell proliferation) assay
Format: cell-based
Conditions: 120 h, growth inhibition in fulvestrant-resistant MCF-7:CFR cells, 120 hrs
Description: For the cell proliferation assay, the fulvestrant-resistant MCF7:5C-FR cells were seeded at about 2000 to about 2500/well in 96-well plates. The next day, compounds were add to the cells at desired serial concentrations form 3 nM to 10 uM. A final 0.1% (v/v) DMSO was used as vehicle control and 1 uM JQ1 was used as positive. The cell were grown in the normal culture condition for 120 hrs. Then the Hoechst 33342 dye were add to each well at a final concentration of 5 μg/ml, and put back to the incubator at 37 C for 90 min. The plates were scanned immediately after the incubation with Celigo (Nexcelcom Biocesnse) for the fluorescence of the nuclear using DAPI channel, and the cell number was counted thought the analysis function of the Celigo software. The normalized cell number to the vehicle control was used to represent the cell proliferation. […] N.D.=Not determined.

`CCS(=O)(=O)Nc1cc(-c2cn(C)c3c(O)nccc23)cc2c1ccn2Cc1ccc(Cl)c(Cl)c1` [Compound 50, N-(1-(3,4-dichlorobenzyl)-6-(7-hydroxy-1-methyl-1H-pyrrolo[2,3-c]pyridin-3-yl)-1H-indol-4-yl)ethanesulfonamide] and `CCS(=O)(=O)Nc1cc(-c2cn(C)c3c(O)nccc23)cc2c1ccn2Cc1ccc(O)c(Cl)c1` [Compound 54, N-(1-(3-chloro-4-hydroxybenzyl)-6-(7-hydroxy-1-methyl-1H-pyrrolo[2,3-c]pyridin-3-yl)-1H-indol-4-yl)ethanesulfonamide] cannot be ordered by IC50: under 1000 nM for the first, over 100 nM for the second.

`CCS(=O)(=O)Nc1cc(-c2cn(C)c3c(O)nccc23)cc2c1ccn2Cc1cc(Cl)ccc1OC` [Compound 51, N-(1-(5-chloro-2-methoxybenzyl)-6-(7-hydroxy-1-methyl-1H-pyrrolo[2,3-c]pyridin-3-yl)-1H-indol-4-yl)ethanesulfonamide] and `CCS(=O)(=O)Nc1cc(-c2cn(C)c3c(O)nccc23)cc2c1ccn2Cc1cc(Cl)ccc1Cl` [Compound 52, N-(1-(2,5-dichlorobenzyl)-6-(7-hydroxy-1-methyl-1H-pyrrolo[2,3-c]pyridin-3-yl)-1H-indol-4-yl)ethanesulfonamide] cannot be ordered by IC50: under 1000 nM for the first, under 1000 nM for the second.

`CCS(=O)(=O)Nc1cc(-c2cn(C)c3c(O)nccc23)cc2c1ccn2Cc1cccc2ccsc12` [Compound 53, N-(1-(benzo[b]thiophen-7-ylmethyl)-6-(7-hydroxy-1-methyl-1H-pyrrolo[2,3-c]pyridin-3-yl)-1H-indol-4-yl)ethanesulfonamide] and `CCS(=O)(=O)Nc1cc(-c2cn(C)c3c(O)nccc23)cc2c1ccn2Cc1ccccc1C(F)(F)F` [Compound 59, N-(6-(7-hydroxy-1-methyl-1H-pyrrolo[2,3-c]pyridin-3-yl)-1-(2-(trifluoromethyl)benzyl)-1H-indol-4-yl)ethanesulfonamide] cannot be ordered by IC50: under 1000 nM for the first, over 100 nM for the second.

`CCS(=O)(=O)Nc1cc(-c2cn(C)c3c(O)nccc23)cc2c1ccn2Cc1cc(Cl)c(O)cc1C` [Compound 55, N-(1-(5-chloro-4-hydroxy-2-methylbenzyl)-6-(7-hydroxy-1-methyl-1H-pyrrolo[2,3-c]pyridin-3-yl)-1H-indol-4-yl)ethanesulfonamide] and `CCS(=O)(=O)Nc1cc(-c2cn(CCCl)c3c(O)nccc23)cc2c1ccn2Cc1ccc(F)cc1C` [Compound 81, N-(6-(1-(2-chloroethyl)-7-hydroxy-1H-pyrrolo[2,3-c]pyridin-3-yl)-1-(4-fluoro-2-methylbenzyl)-1H-indol-4-yl)ethanesulfonamide] cannot be ordered by IC50: over 100 nM for the first, over 100 nM for the second.

`CCS(=O)(=O)Nc1cc(-c2cn(C)c3c(O)nccc23)cc2c1ccn2Cc1cc(Cl)cc(OCCN(C)C)c1` [Compound 56, N-(1-(3-chloro-5-(2-(dimethylamino)ethoxy)benzyl)-6-(7-hydroxy-1-methyl-1H-pyrrolo[2,3-c]pyridin-3-yl)-1H-indol-4-yl)ethanesulfonamide] and `CCS(=O)(=O)Nc1cc(-c2cn(C)c3c(O)nccc23)cc2c1ccn2Cc1cc(Cl)cc(CCN(C)C)c1` [Compound 57, N-(1-(3-chloro-5-(2-(dimethylamino)ethyl)benzyl)-6-(7-hydroxy-1-methyl-1H-pyrrolo[2,3-c]pyridin-3-yl)-1H-indol-4-yl)ethanesulfonamide] cannot be ordered by IC50: over 100 nM for the first, over 100 nM for the second.

`CCS(=O)(=O)Nc1cc(-c2cn(C)c3c(O)nccc23)cc2c1ccn2Cc1ccc(C#N)cc1` [Compound 58, N-(1-(4-cyanobenzyl)-6-(7-hydroxy-1-methyl-1H-pyrrolo[2,3-c]pyridin-3-yl)-1H-indol-4-yl)ethanesulfonamide] and `CCS(=O)(=O)Nc1cc(-c2cn(CCCl)c3c(O)nccc23)cc2c1ccn2Cc1ccc(F)cc1` [Compound 80, N-(6-(1-(2-chloroethyl)-7-hydroxy-1H-pyrrolo[2,3-c]pyridin-3-yl)-1-(4-fluorobenzyl)-1H-indol-4-yl)ethanesulfonamide] cannot be ordered by IC50: under 1000 nM for the first, over 100 nM for the second.

`CCS(=O)(=O)Nc1cccc2c1nc(-c1cn(C)c3c(O)nccc13)n2Cc1ccccc1` [Compound 60, N-(1-benzyl-2-(7-hydroxy-1-methyl-1H-pyrrolo[2,3-c]pyridin-3-yl)-1H-benzo[d]imidazol-4-yl)ethanesulfonamide] and `CCS(=O)(=O)Nc1cccc2c1nc(-c1cn(C)c3c(O)nccc13)n2Cc1ccccc1C(F)(F)F` [Compound 62, N-(2-(7-hydroxy-1-methyl-1H-pyrrolo[2,3-c]pyridin-3-yl)-1-(2-(trifluoromethyl)benzyl)-1H-benzo[d]imidaol-4-yl)ethanesulfonamide] cannot be ordered by IC50: over 100 nM for the first, over 100 nM for the second.

`CCS(=O)(=O)Nc1cc(-c2cn(C)c3c(O)nccc23)cc2c1cnn2C(C)(c1ccccn1)c1ccccn1` [Compound 63, N-(1-(1,1-di(pyridin-2-yl)ethyl)-6-(7-hydroxy-1-methyl-1H-pyrrolo[2,3-c]pyridin-3-yl)-1H-indazol-4-yl)ethanesulfonamide] and `CCS(=O)(=O)Nc1cccc2c1nc(-c1cn(C)c3c(O)nccc13)n2C(C)(c1ccccn1)c1ccccn1` [Compound 69, N-(1-(1,1-di(pyridin-2-yl)ethyl)-2-(7-hydroxy-1-methyl-1H-pyrrolo[2,3-c]pyridin-3-yl)-1H-benzo[d]imidaol-4-yl)ethanesulfonamide] cannot be ordered by IC50: under 1000 nM for the first, under 1000 nM for the second.

`CCS(=O)(=O)Nc1cc(-c2cn(C)c3c(O)nccc23)cc2c1ncn2[C@H](c1ccccc1)C1CCOCC1` [Compound 64, (S)-N-(6-(7-hydroxy-1-methyl-1H-pyrrolo[2,3-c]pyridin-3-yl)-1-(phenyl(tetrahydro-2H-pyran-4-yl)methyl)-1H-benzo[d]imidaol-4-yl)ethanesulfonamide] and `Cn1cc(-c2nc3c(NS(C)(=O)=O)cccc3n2[C@H](c2ccccc2)C2CCOCC2)c2ccnc(O)c21` [Compound 67, (S)-N-(2-(7-hydroxy-1-methyl-1H-pyrrolo[2,3-c]pyridin-3-yl)-1-(phenyl(tetrahydro-2H-pyran-4-yl)methyl)-1H-benzo[d]imidaol-4-yl)methanesulfonamide] cannot be ordered by IC50: under 1000 nM for the first, under 1000 nM for the second.

`CCS(=O)(=O)Nc1cccc2c1nc(-c1cn(C)c3c(O)nccc13)n2Cc1ccc(N(C)C)cc1` [Compound 66, N-(1-(4-(dimethylamino)benzyl)-2-(7-hydroxy-1-methyl-1H-pyrrolo[2,3-c]pyridin-3-yl)-1H-benzo[d]imidaol-4-yl)ethanesulfonamide] and `Cn1cc(-c2nc3c(NS(C)(=O)=O)cccc3n2[C@@H](c2ccccc2)C2CCOCC2)c2ccnc(O)c21` [Compound 68, (R)-N-(2-(7-hydroxy-1-methyl-1H-pyrrolo[2,3-c]pyridin-3-yl)-1-(phenyl(tetrahydro-2H-pyran-4-yl)methyl)-1H-benzo[d]imidaol-4-yl)methanesulfonamide] cannot be ordered by IC50: over 100 nM for the first, under 1000 nM for the second.

Compared with `Cn1cc(-c2cc(NS(C)(=O)=O)c3ccn(CC4CC(F)(F)C4)c3c2)c2cc[nH]c(=O)c21` [Compound 73, N-(1-((3,3-difluorocyclobutyl)methyl)-6-(1-methyl-7-oxo-6,7-dihydro-1H-pyrrolo[2,3-c]pyridin-3-yl)-1H-indol-4-yl)methanesulfonamide], `Cn1cc(-c2cc(NS(C)(=O)=O)c3ccn(CC4(C)COC4)c3c2)c2cc[nH]c(=O)c21` [Compound 74, N-(6-(1-methyl-7-oxo-6,7-dihydro-1H-pyrrolo[2,3-c]pyridin-3-yl)-1-((3-methyloxetan-3-yl)methyl)-1H-indol-4-yl)methanesulfonamide] is 2.2-fold higher in IC50: 62 nM for the first, 134 nM for the second.

`CCS(=O)(=O)Nc1cc(-c2cn(C)c3c(=O)[nH]ccc23)cc2c1ccn2C(C)(c1nccn1C)c1nccn1C` [Compound 75, N-(1-(1,1-bis(1-methyl-1H-imidazol-2-yl)ethyl)-6-(7-hydroxy-1-methyl-1H-pyrrolo[2,3-c]pyridin-3-yl)-1H-indol-4-yl)ethanesulfonamide] and `CCS(=O)(=O)Nc1cc(-c2cn(C)c3c(=O)[nH]ccc23)cc2c1ccn2C(C)(c1cnccn1)c1cnccn1` [Compound 76, N-(1-(1,1-di(pyrazin-2-yl)ethyl)-6-(7-hydroxy-1-methyl-1H-pyrrolo[2,3-c]pyridin-3-yl)-1H-indol-4-yl)ethanesulfonamide] cannot be ordered by IC50: under 1000 nM for the first, under 1000 nM for the second.

`CCN(C(=O)C1COC1)c1cc(-c2cn(C)c3c(=O)[nH]ccc23)cc2c1ccn2Cc1c(C)cccc1C` [Compound 77, N-(1-(2,6-dimethylbenzyl)-6-(7-hydroxy-1-methyl-1H-pyrrolo[2,3-c]pyridin-3-yl)-1H-indol-4-yl)-N-ethyloxetane-3-carboxamide] and `CCC(=O)N(c1cc(-c2cn(C)c3c(=O)[nH]ccc23)cc2c1ccn2Cc1c(C)cccc1Cl)C1CC1` [Compound 78, N-(1-(2-chloro-6-methylbenzyl)-6-(7-hydroxy-1-methyl-1H-pyrrolo[2,3-c]pyridin-3-yl)-1H-indol-4-yl)-N-cyclopropylpropionamide] cannot be ordered by IC50: over 100 nM for the first, over 100 nM for the second.

`CS(=O)(=O)Nc1cc(-c2cn(CCCl)c3c(O)nccc23)cc2c1ccn2Cc1ccc(F)cc1` [Compound 79, N-(6-(1-(2-chloroethyl)-7-hydroxy-1H-pyrrolo[2,3-c]pyridin-3-yl)-1-(4-fluorobenzyl)-1H-indol-4-yl)methanesulfonamide] and `CCS(=O)(=O)Nc1cc(-c2cn(CCCl)c3c(O)nccc23)cc2c1ccn2Cc1ccc(F)cc1Cl` [Compound 82, N-(1-(2-chloro-4-fluorobenzyl)-6-(1-(2-chloroethyl)-7-hydroxy-1H-pyrrolo[2,3-c]pyridin-3-yl)-1H-indol-4-yl)ethanesulfonamide] cannot be ordered by IC50: over 100 nM for the first, over 1000 nM for the second.

With `CCS(=O)(=O)Nc1cc(-c2cn(CCCl)c3c(O)nccc23)cc2c1ccn2Cc1c(C)cc(F)cc1C` [Compound 83, N-(6-(1-(2-chloroethyl)-7-hydroxy-1H-pyrrolo[2,3-c]pyridin-3-yl)-1-(4-fluoro-2,6-dimethylbenzyl)-1H-indol-4-yl)ethanesulfonamide] the IC50 was over 1000 nM.
